pIC50: −log10 of the molar value.
What was measured:
recombinant human PAI-1 [1] = biological target: T1, recombinant human PAI-1 (Homo sapiens, UniProt P05121); test: PAI-1 inhibitory activity, Test Method A (tPA fluorogenic substrate, Tris buffer pH8.0, 37 C); format: biochemical; details: for pIC50: 50% inhibitory concentration of PAI-1 activity, according to the aforementioned method; for Inhibitory Ratio at 25 μM (%): Test Method A
recombinant human PAI-1 [2] = biological target: T1, recombinant human PAI-1; test: Inhibition of complex formation of PAI-1 and tPA (SDS-PAGE); format: biochemical; details: 100 μM concentration
Method: To a 2.5 μL solution obtained by diluting a DMSO solution of the test compound at 4-fold concentration of the test concentration with PBS(-), 5 μL of 150 nM recombinant human PAI-1 solution adjusted with a phosphate buffer (pH6.6, 0.05M Sodium Phosphate, 0.1 M NaCl, 1 mM EDTA) was added, and reacted for 5 minutes at 37° C. […] of 600 nM recombinant human one-chain tPA solution adjusted with PBS(-) was added, and further reacted for 5 minutes at 37° C. 10 μL of stop buffer (1.25 mM Tris-HCl pH6.8, 4% SDS, 0.01% BPB, 14% Glycerol) was added, heated for 30 seconds at 100° C., and then the total amount of 20 μL was applied to 10% SDS-PAGE gel electrophoresis. When the test compound was not added as being a control, a band of PAI-1-tPA complex was observed.

recombinant human PAI-1 [3] = biological target: T1, recombinant human PAI-1; test: PAI-1 inhibitory activity, Test Method B (tPA fluorogenic substrate, Tris buffer pH7.5, room temperature); format: biochemical; details: 25 μM test compound; Test Method B (cells marked "method B")
Method: To a 90 μL solution obtained by diluting a DMSO solution of the test compound at 2.2-fold concentration of the test concentration (=final concentration when fluorogenic substrate was added) with a Tris buffer (pH7.5), 10 μL of 120 nM recombinant human PAI-1 solution adjusted with pH6.6 phosphate buffer was added, and incubated for 15 minutes at room temperature. 50 μL of 800IU/ml two-chain tPA (activity standard) solution adjusted with Tris buffer (pH7.5) was added, and incubated for 30 minutes at room temperature. […] Fluorescence was measured at the excitation wavelength=360 nm, emission wavelength=460 or 465 nm using a microplete reader (SPECTRAFLUOR or GENios) by TECAN. The fluorescence intensities in the presence of the PAI-1 as the control (DMSO) or in the absence of the PAI-1 (tPA alone) were taken as 100% and 0% of PAI-1 activities, respectively, and inhibitory ratios of PAI-1 activities in the presence of the test compound were obtained. […]
In either method of Test Method A or B, fluorescence of tPA activation by the test compound in the absence of PAI-1 or that of the test compound was not observed.
In the following table, “method B” described in the column of the inhibitory ratio means that the results were measured by the above Test Method B. The other results indicated were measured by the above Test Method A.

T1 sequence (P05121 24-402): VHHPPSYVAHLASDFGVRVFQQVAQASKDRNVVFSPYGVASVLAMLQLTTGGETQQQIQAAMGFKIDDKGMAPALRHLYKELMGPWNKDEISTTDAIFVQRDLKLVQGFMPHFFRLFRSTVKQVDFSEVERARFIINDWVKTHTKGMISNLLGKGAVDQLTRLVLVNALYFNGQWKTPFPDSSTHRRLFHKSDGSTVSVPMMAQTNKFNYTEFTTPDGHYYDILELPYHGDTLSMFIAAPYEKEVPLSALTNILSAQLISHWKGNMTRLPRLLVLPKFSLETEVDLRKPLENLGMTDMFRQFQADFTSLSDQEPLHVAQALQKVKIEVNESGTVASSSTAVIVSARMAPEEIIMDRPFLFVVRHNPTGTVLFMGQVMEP

pIC50 (recombinant human PAI-1 [1])	Inhibitory Ratio at 25 μM (%) (recombinant human PAI-1 [1]; test compound 25 μM)	inhibition of the complex formation of PAI-1 and tPA observed with SDS-PAGE (recombinant human PAI-1 [2])	Inhibitory Ratio at 25 μM (%) (recombinant human PAI-1 [1]; 25 μM test compound)	Inhibitory Ratio at 25 μM (%) (recombinant human PAI-1 [3])	melting point	Compound
6.41	>99	completely inhibited				O=C1C(=Cc2cc(O)c(O)cc2O)C(c2ccccc2)=NN1c1cc(Cl)cc(Cl)c1 [compound 136]
6.85	>99	completely inhibited				O=C1SC(=Cc2cccc(O)c2O)C(=O)N1Cc1ccc(C=Cc2ccccc2)cc1 [compound 56, 5-(2,3-Dihydroxybenzylidene)-3-(4-styrylbenzyl)thiazolidine-2,4-dione]
6.54		completely inhibited	89			CC(C)C1=NN(c2cc(Cl)cc(Cl)c2)C(=O)C1=Cc1cc(O)c(O)cc1O [compound 504]
		completely inhibited	96			Cc1cc(C=C2SC(=O)N(Cc3ccc(Cl)c(Cl)c3)C2=O)cc(C(=O)Nc2ccc(O)c(O)c2)c1O [compound 401, 5-[3-Methyl-4-hydroxy-5-(3,4-dihydroxyphenylcarbamoyl)-benzylidene]-3-(3,4-dichlorobenzyl)thiazolidine-2,4-dione]
6.47		completely inhibited	>99			O=C(Cc1cccc(Oc2ccccc2)c1)Nc1cccc(CN2C(=O)SC(=Cc3cccc(O)c3O)C2=O)c1 [compound 320, 5-(2,3-Dihydroxybenzylidene)-3-{3-[(3-phenoxyphenyl)acetylamino]-benzyl}thiazolidine-2,4-dione]
6.32		completely inhibited	>99			CCOC1=NN(c2ccc([N+](=O)[O-])cc2)C(=O)C1=Cc1cc(/C=C/c2ccccc2)ccc1O [compound 517]
				75 (method B) %		O=C(O)c1cccc(C=C2SC(=O)N(Cc3ccc(Cl)c(Cl)c3)C2=O)c1 [compound 350, 5-(3-Carboxybenzylidene)-3-(3,4-dichlorobenzyl)thiazolidine-2,4-dione]
		completely inhibited	>99			CC1=NN(c2ccc(Cl)c(Cl)c2)C(=O)C1=Cc1cc(O)c(O)cc1O [compound 503]
		completely inhibited	66			O=C(Nc1ccc(O)c(O)c1)c1cc(C=C2SC(=O)N(Cc3ccc(Cl)c(Cl)c3)C2=O)ccc1O [compound 352]
6.34		completely inhibited	>99			O=C(Nc1ccc(CN2C(=O)SC(=Cc3cccc(O)c3O)C2=O)cc1)c1ccc(Oc2ccccc2)cc1 [compound 316, 5-(2,3-Dihydroxybenzylidene)-3-[4-(4-phenoxybenzoylamino)benzyl]-thiazolidine-2,4-dione]
6.64	>99	completely inhibited				O=C1C(=Cc2ccc(O)c(O)c2)SC(=S)N1Cc1ccc(Cl)c(Cl)c1 [compound 81, 5-(3,4-Dihydroxybenzylidene)-3-(3,4-dichlorobenzyl)rhodanine]
6.41		completely inhibited	70			O=C(Nc1cc([N+](=O)[O-])ccc1Cl)c1cc(C=C2SC(=O)N(Cc3ccc(Cl)c(Cl)c3)C2=O)ccc1O [compound 473]
6.62	>99	completely inhibited				CC(C)C1=NN(c2ccc(Cl)c(Cl)c2)C(=O)C1=Cc1cc(O)c(O)cc1O [compound 141, 4-(2,4,5-trihydroxybenzylidene)-1-(3,4-dichlorophenyl)-3-isopropyl-2-pyrazolin-5-one]
		completely inhibited	92			O=C(Nc1ccc(O)c(O)c1)c1cc(C=C2SC(=O)N(Cc3ccc(C(F)(F)F)cc3)C2=O)ccc1O [compound 402]
6.38		completely inhibited	>99			O=C(Cc1cc(C(F)(F)F)cc(C(F)(F)F)c1)Nc1ccc(CN2C(=O)SC(=Cc3cccc(O)c3O)C2=O)cc1 [compound 317, 5-(2,3-Dihydroxybenzylidene)-3-{4-[3,5-Bis(trifluoromethyl)-phenylacetylamino]benzyl}thiazolidine-2,4-dione]
6.60	>99	completely inhibited			202 °C (dec.)	O=C1SC(=Cc2ccc(O)c(O)c2)C(=O)N1Cc1ccc(Cl)cc1Cl [compound 23, 5-(3,4-dihydroxybenzylidene)-3-(2,4-dichlorobenzyl)thiazolidine-2,4-dione]
6.68		completely inhibited	>99			O=C(Nc1cccc(O)c1O)c1cc(C=C2SC(=O)N(Cc3ccc(Cl)c(Cl)c3)C2=O)ccc1O [compound 436]
6.32		completely inhibited	71			O=C(Nc1cc(Cl)ccc1Cl)c1cc(C=C2SC(=O)N(Cc3ccc(Cl)c(Cl)c3)C2=O)ccc1O [compound 441]
6.35	>99	completely inhibited				O=C1SC(=Cc2cccc(O)c2O)C(=O)N1Cc1ccc(Br)cc1 [compound 36, 5-(2,3-Dihydroxybenzylidene)-3-(4-bromobenzyl)thiazolidine-2,4-dione]
6.30		completely inhibited	>99			CC(C)C1=NN(c2ccc(F)c(Cl)c2)C(=O)C1=Cc1cc(O)c(O)cc1O [compound 515, 4-(2,4,5-Trihydroxybenzylidne)-1-(3-chloro-4-fluorophenyl)-3-isopropyl-2-pyrazolin-5-one]
				23 (method B) %		COC(=O)c1ccc(CN2C(=O)SC(=Cc3ccc(O)c(C(=O)O)c3)C2=O)cc1 [compound 409, 5-(3-Carboxy-4-hydroxybenzylidene)-3-(4-methoxycarbonylbenzyl)-thiazolidine-2,4-dione]
6.54		completely inhibited	>99			O=C(Cc1cccc(Oc2ccccc2)c1)Nc1ccc(CN2C(=O)SC(=Cc3cccc(O)c3O)C2=O)cc1 [compound 312, 5-(2,3-Dihydroxybenzylidene)-3-{4-[(3-phenoxyphenyl)acetylamino]-benzyl}thiazolidine-2,4-dione]
6.35		completely inhibited	>99			O=C1SC(=Cc2cc(O)c(O)c([N+](=O)[O-])c2)C(=O)N1Cc1ccc(Cl)c(Cl)c1 [compound 347]

Compound	pIC50 (recombinant human PAI-1 [1])	Inhibitory Ratio at 25 μM (%) (recombinant human PAI-1 [1]; test compound 25 μM)	inhibition of the complex formation of PAI-1 and tPA observed with SDS-PAGE (recombinant human PAI-1 [2])	Inhibitory Ratio at 25 μM (%) (recombinant human PAI-1 [1]; 25 μM test compound)	Inhibitory Ratio at 25 μM (%) (recombinant human PAI-1 [3])	melting point
O=C(Nc1cc(C(F)(F)F)ccc1Cl)c1cc(C=C2SC(=O)N(Cc3ccc(Cl)c(Cl)c3)C2=O)ccc1O [compound 423]			completely inhibited	75		
O=C(Nc1cccc(OC(F)(F)F)c1)c1cc(C=C2SC(=O)N(Cc3ccc(Cl)c(Cl)c3)C2=O)cc(O)c1O [compound 475]	6.28		completely inhibited	53		
